Data on three molecules can be found in ChEMBL document CHEMBL1949614, “Advent of Imidazo[1,2-a]pyridine-3-carboxamides with Potent Multi- and Extended Drug Resistant Antituberculosis Activity” (ACS Med Chem Lett, 2011).

Holding throughout (assay type): functional
Experiment [1] relates to Mycobacterium tuberculosis. Put plainly: Antitubercular activity against multidrug-resistant isoniazid, rifampicin, ethambutol, pyrazinamide, streptomycin, p-aminosalicylic acid-resistant Mycobacterium tuberculosis clinical isolate by microbroth dilution assay.
Experiment [2] relates to Mycobacterium tuberculosis. The experiment is described as follows: Antitubercular activity against extensively drug-resistant isoniazid, rifampicin, ethambutol, kanamycin, p-aminosalicylic acid, ethionamide/thioacetazone, ofloxacin-resistant Mycobacterium tuberculosis clinical isolate by microbroth dilution assay.
Experiment [3] concerns Mycobacterium tuberculosis. Put plainly: Antitubercular activity against extensively drug-resistant isoniazid, rifampicin, ethambutol, streptomycin, p-aminosalicylic acid, ofloxacin-resistant Mycobacterium tuberculosis clinical isolate by microbroth dilution assay.
For experiment [4], the system named is Mycobacterium tuberculosis. The experiment is described as follows: Antitubercular activity against multidrug-resistant isoniazid, cycloserine, p-aminosalicylic acid, ethionamide/thioacetazone-resistant Mycobacterium tuberculosis clinical isolate by microbroth dilution assay.
Experiment [5] concerns Mycobacterium tuberculosis. Put plainly: Antitubercular activity against multidrug-resistant isoniazid, rifampicin, ethambutol, kanamycin, p-aminosalicylic acid-resistant Mycobacterium tuberculosis clinical isolate by microbroth dilution assay.
For experiment [6], the system named is Mycobacterium tuberculosis. The experiment is described as follows: Antitubercular activity against multidrug-resistant isoniazid, rifampicin, ethambutol, rifabutin-resistant Mycobacterium tuberculosis clinical isolate by microbroth dilution assay.
Experiment [7] deals with Mycobacterium tuberculosis. The experiment is described as follows: Antitubercular activity against multidrug-resistant isoniazid, rifampicin, ethambutol, pyrazinamide, rifabutin, thioacetazone/ethionamide-resistant Mycobacterium tuberculosis clinical isolate by microbroth dilution assay.
Experiment [8] has as its system Mycobacterium tuberculosis. The experiment is described as follows: Antitubercular activity against multidrug-resistant isoniazid, rifampicin, ethambutol, streptomycin, p-aminosalicylic acid-resistant Mycobacterium tuberculosis by microbroth dilution assay.
The test system of experiment [9] is Mycobacterium tuberculosis. Put plainly: Antitubercular activity against extensively drug-resistant isoniazid, rifampicin, ethambutol, streptomycin, cycloserine, p-aminosalicylic acid, ethionamide/thioacetazone, ofloxacin-resistant Mycobacterium tuberculosis clinical isolate by microbroth dilution assay.
Experiment [10] concerns Mycobacterium tuberculosis. Put plainly: Antitubercular activity against multidrug-resistant isoniazid, rifampicin, ethambutol, pyrazinamide, streptomycin, kanamycin, p-aminosalicylic acid, ethionamide/thioacetazone-resistant Mycobacterium tuberculosis clinical isolate by microbroth dilution assay.

Converted amounts (≈) assume the structure as drawn.

For the molecule `Cc1ccn2c(C(=O)NCc3ccccc3)c(C)nc2c1`, the MIC90 in experiment [1] worked out at 1.12 µM (≈ 0.313 µg/mL); in [2] it was 0.07 µM (≈ 0.0196 µg/mL); in [3], 0.14 µM (≈ 0.0391 µg/mL); in experiment [4] it was 1.12 µM (≈ 0.313 µg/mL); in experiment [5], 0.28 µM (≈ 0.0782 µg/mL); in experiment [6] it was 0.14 µM (≈ 0.0391 µg/mL). Further, the MIC90 came out at 0.14 µM (≈ 0.0391 µg/mL) in experiment [7], 2.24 µM (≈ 0.626 µg/mL) in experiment [8], 0.07 µM (≈ 0.0196 µg/mL) in [9] and 0.07 µM (≈ 0.0196 µg/mL) in experiment [10].

On to `COc1cccc(CNC(=O)c2c(C)nc3cc(C)ccn23)c1`, for which the MIC90 in experiment [1] is 0.06 µM (≈ 0.0186 µg/mL); in experiment [2], 0.02 µM (≈ 0.00619 µg/mL); in [3] it was 0.02 µM (≈ 0.00619 µg/mL); in [4] it was 0.13 µM (≈ 0.0402 µg/mL); in experiment [5], 0.13 µM (≈ 0.0402 µg/mL); in experiment [6], ≤ 0.03 µM. Also, the MIC90 in experiment [7] was 0.06 µM (≈ 0.0186 µg/mL); in experiment [8] it was 1.01 µM (≈ 0.312 µg/mL); in experiment [9] it was 0.03 µM (≈ 0.00928 µg/mL); in experiment [10], ≤ 0.03 µM.

On to `Cc1ccn2c(C(=O)NCc3cccc(F)c3)c(C)nc2c1`, for which the MIC90 in experiment [1] was determined as 0.06 µM (≈ 0.0178 µg/mL); in [2] it was 0.03 µM (≈ 0.00892 µg/mL); in [3], 0.03 µM (≈ 0.00892 µg/mL); in experiment [4], 0.26 µM (≈ 0.0773 µg/mL); in experiment [5], 0.26 µM (≈ 0.0773 µg/mL); in experiment [6] it was 0.13 µM (≈ 0.0387 µg/mL). The MIC90 amounted to 0.06 µM (≈ 0.0178 µg/mL) in experiment [7], 0.26 µM (≈ 0.0773 µg/mL) in experiment [8], 0.07 µM (≈ 0.0208 µg/mL) in [9] and 0.06 µM (≈ 0.0178 µg/mL) in experiment [10].
